Laboratory results: ChEMBL document CHEMBL4665655, “Highly tunable thiosulfonates as a novel class of cysteine protease inhibitors with anti-parasitic activity against Schistosoma mansoni” (Bioorg Med Chem, 2019)

Key:
Papain = biological target: T1, Papain (Carica papaya, UniProt P00784); assay: Inhibition of papaya papain assessed as reduction in p-nitoaniline release using Nalpha-benzoyl-L-arginine 4-nitroanilide hydrochloride as substrate measured after 1 hr
T1 sequence (P00784 whole entry): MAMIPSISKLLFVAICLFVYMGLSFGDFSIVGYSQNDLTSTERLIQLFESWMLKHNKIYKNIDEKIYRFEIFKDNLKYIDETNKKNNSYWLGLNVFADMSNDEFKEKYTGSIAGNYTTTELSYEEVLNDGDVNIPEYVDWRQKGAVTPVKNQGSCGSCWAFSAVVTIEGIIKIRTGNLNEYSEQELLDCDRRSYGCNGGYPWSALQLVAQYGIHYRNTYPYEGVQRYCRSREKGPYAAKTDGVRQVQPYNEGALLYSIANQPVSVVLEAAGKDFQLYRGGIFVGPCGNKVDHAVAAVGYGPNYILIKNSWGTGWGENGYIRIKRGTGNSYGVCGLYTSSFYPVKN

[1] = Inhibition of cysteine protease in Schistosoma mansoni assessed as reduction in schistosomula viability incubated for 7 days by inverted microscopy analysis
[2] = Inhibition of cysteine protease in Schistosoma mansoni assessed as reduction in schistosomula viability incubated for 3 days by inverted microscopy analysis
[3] = Aqueous stability of the compound in 0.1 M sodium phosphate buffer assessed as half life at pH 6 incubated under shaken condition by HPLC analysis; format: physicochemical
[4] = Aqueous stability of the compound in 0.1 M sodium phosphate buffer assessed as time taken for drug degradation at pH 7 to 8 incubated under shaken condition by HPLC analysis; format: physicochemical
[5] = Aqueous stability of the compound in 0.1 M sodium phosphate buffer assessed as half life at pH 7 incubated under shaken condition by HPLC analysis; format: physicochemical
[6] = Aqueous stability of the compound in 0.1 M sodium phosphate buffer at pH 6 to 7 incubated under shaken condition by HPLC analysis; format: physicochemical
[7] = Aqueous stability of the compound in 0.1 M sodium phosphate buffer assessed as half life at pH 8 incubated under shaken condition by HPLC analysis; format: physicochemical

Row | SMILES | IC50 (Papain) [nM] | IC50 [1] [nM] | IC50 [2] [nM] | further results
1 | Cc1ccc(S(=O)(=O)SC[C@H](CCCNC(=N)N)NC(=O)[C@H](Cc2ccccc2)NC(=O)N2CCN(C)CC2)cc1 | 162 | – | – | –
2 | O[C@@H](c1cc(C(F)(F)F)nc2c(C(F)(F)F)cccc12)[C@H]1CCCCN1 [(S,R)-MEFLOQUINE] | – | 400 | 2400 | –
3 | CN1CCN(C(=O)N[C@@H](Cc2ccccc2)C(=O)N[C@H](/C=C/S(=O)(=O)c2ccccc2)CCc2ccccc2)CC1 [K-777] | 81 | 7300 | 59900 | –
4 | CN1CCN(C(=O)N[C@@H](Cc2ccccc2)C(=O)N[C@@H](CCc2ccccc2)CSS(=O)(=O)c2ccc([N+](=O)[O-])cc2)CC1.O=C(O)C(F)(F)F | 186 | 14700 | 29300 | half-life [3]: 1.45 h; Time [4]: < 1 h
5 | CN1CCN(C(=O)N[C@@H](Cc2ccccc2)C(=O)N[C@@H](CCCNC(=N)N)CSS(=O)(=O)c2ccccc2)CC1 | 168 | – | – | –
6 | CN1CCN(C(=O)N[C@@H](Cc2ccccc2)C(=O)N[C@@H](CCc2ccccc2)CSS(=O)(=O)c2ccccc2)CC1 | 190 | 21400 | 64400 | –
7 | COc1ccc(S(=O)(=O)SC[C@H](CCc2ccccc2)NC(=O)[C@H](Cc2ccccc2)NC(=O)N2CCN(C)CC2)cc1.O=C(O)C(F)(F)F | 148 | 13600 | 44900 | half-life [5]: 24 h; half-life [3]: 1 h
8 | CN1CCN(C(=O)N[C@@H](Cc2ccccc2)C(=O)N[C@@H](CCCNC(=N)N)CSS(=O)(=O)C2CCCCC2)CC1 | 106 | – | – | –
9 | CN1CCN(C(=O)N[C@@H](Cc2ccccc2)C(=O)N[C@@H](CCCNC(=N)N)CSS(=O)(=O)c2ccc([N+](=O)[O-])cc2)CC1 | 129 | – | – | –
10 | CN1CCN(C(=O)N[C@@H](Cc2ccccc2)C(=O)N[C@@H](CCc2ccccc2)CSS(=O)(=O)C2CCCCC2)CC1.O=C(O)C(F)(F)F | 168 | 13500 | 25400 | Stabilty [6]: Stable; half-life [7]: 6 h
11 | Cc1ccc(S(=O)(=O)SC[C@H](CCc2ccccc2)NC(=O)[C@H](Cc2ccccc2)NC(=O)N2CCN(C)CC2)cc1 | 182 | 26900 | 41100 | –
12 | COc1ccc(S(=O)(=O)SC[C@H](CCCNC(=N)N)NC(=O)[C@H](Cc2ccccc2)NC(=O)N2CCN(C)CC2)cc1 | 124 | – | – | –
